The values below come from US9243221B2, “Compositions and methods of functionally enhanced in vitro cell culture system” (HUREL CORPORATION, priority 2008, dated 2016).

Data set [1] relates to Cryopreserved human hepatocytes. Kind of data set: Long term accumulation of 4-OH midazolam in culture media of oxygenated hepatocyte co-cultures. The format is in vitro ADME. The note with it: in the presence and absence of rifampicin; FIG. 5B.
For data set [2] the test system is unchanged. As to the method:
Cryopreserved human hepatocytes are cultured with 3T3-J2 fibroblasts under serum free conditions. Following overnight incubation in high oxygen tension (95% O2, 5% CO2) the cells are exposed to one of the following drugs: antipyrine, buspirone, metoprolol, sildenafil, and timolol.

Where two headings read alike, the source gives them in different places.

As for `Cc1ncc2n1-c1ccc(Cl)cc1C(c1ccccc1F)=NC2O` (stereo not shown) [4-OH midazolam], the “accumulation of 4-OH midazolam in the culture media” value in data set [1] was “can be detected over 30 hours of culture”.

In the case of `Cc1cc(=O)n(-c2ccccc2)n1C` [antipyrine], the clearance of drugs entry in data set [2] (cryopreserved human hepatocytes with 3T3-J2 fibroblasts, serum free, overnight 95% O2, 5% CO2, FIG. 5A) is reported as “slow clearing”.

Regarding `CCCc1nn(C)c2c(=O)[nH]c(-c3cc(S(=O)(=O)N4CCN(C)CC4)ccc3OCC)nc12` [sildenofil, sildenafil], the clearance of drugs entry in data set [2] (human) is given as “slow clearing”.

Regarding `CC(C)(C)NC[C@H](O)COc1nsnc1N1CCOCC1` [timolol], the clearance of drugs result in data set [2] (human) was “slow clearing”.
